The values that follow come from ChEMBL document CHEMBL1201862, “PubChem BioAssay data set” (2004).

Molecules are shown by their SMILES. Active and inactive are the calls of the source.

The nature of assay [1]: ARNT/TACC3 interaction disruptors, potency, confirmation, biochemical, AlphaScreen, cherry-picked samples (AID 651703).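 Also: His-tagged ARNT PAS-B domain paired with GST-TACC3 E629A dimer coactivator fragment; potency of inhibitors that break up the complex and lower AlphaScreen signal.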 Format: functional, Homo sapiens. On the technique in general: Alpha assays give light when donor and acceptor beads are brought close together.
Assay [2] addresses Alkaline phosphatase, placental type (Homo sapiens, UniProt P05187). In words: PLAP enzyme inhibitors, confirmation, biochemical, luminescence (AID 1512). Format: functional.
Assay [3] concerns the target Beta-lactamase (Salmonella choleraesuis (strain SC-B67), UniProt Q5J463).
In assay [4] the target is Beta-lactamase (Pseudomonas aeruginosa, UniProt Q79MP6).
Beta-lactamase (Pseudomonas aeruginosa, UniProt Q79MP6), sequence (Q79MP6 whole entry): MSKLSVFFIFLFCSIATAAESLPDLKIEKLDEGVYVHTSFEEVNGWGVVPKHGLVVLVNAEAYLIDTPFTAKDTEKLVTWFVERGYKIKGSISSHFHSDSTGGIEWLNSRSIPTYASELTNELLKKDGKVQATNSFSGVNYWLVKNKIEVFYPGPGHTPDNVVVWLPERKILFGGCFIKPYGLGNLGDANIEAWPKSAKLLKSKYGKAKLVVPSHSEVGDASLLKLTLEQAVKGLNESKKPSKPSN
The target of assay [5] is Kappa-type opioid receptor (Homo sapiens, UniProt P41145). Format: functional.
Kappa-type opioid receptor, sequence (P41145 whole entry): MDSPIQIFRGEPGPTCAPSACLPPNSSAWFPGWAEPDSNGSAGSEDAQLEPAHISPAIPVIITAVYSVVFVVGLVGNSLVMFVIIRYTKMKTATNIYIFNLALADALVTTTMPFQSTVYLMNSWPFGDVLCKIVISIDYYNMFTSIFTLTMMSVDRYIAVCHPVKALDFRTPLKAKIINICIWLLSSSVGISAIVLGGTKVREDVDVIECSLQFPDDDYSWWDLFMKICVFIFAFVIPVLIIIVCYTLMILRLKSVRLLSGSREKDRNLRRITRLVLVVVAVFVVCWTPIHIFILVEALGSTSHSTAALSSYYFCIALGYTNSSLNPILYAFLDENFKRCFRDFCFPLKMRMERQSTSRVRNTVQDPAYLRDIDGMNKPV
The target in the next assay is Beta-galactosidase (Escherichia coli, UniProt Q8VNN2). In words: Dose response counterscreen for EBI2 assay utilizing the enzyme, b-galactosidase. Format: functional. On the technique in general: A counterscreen serves to expose hits that act by an unwanted route or on another target.
Beta-galactosidase, sequence (Q8VNN2 whole entry, the tested form may be a part): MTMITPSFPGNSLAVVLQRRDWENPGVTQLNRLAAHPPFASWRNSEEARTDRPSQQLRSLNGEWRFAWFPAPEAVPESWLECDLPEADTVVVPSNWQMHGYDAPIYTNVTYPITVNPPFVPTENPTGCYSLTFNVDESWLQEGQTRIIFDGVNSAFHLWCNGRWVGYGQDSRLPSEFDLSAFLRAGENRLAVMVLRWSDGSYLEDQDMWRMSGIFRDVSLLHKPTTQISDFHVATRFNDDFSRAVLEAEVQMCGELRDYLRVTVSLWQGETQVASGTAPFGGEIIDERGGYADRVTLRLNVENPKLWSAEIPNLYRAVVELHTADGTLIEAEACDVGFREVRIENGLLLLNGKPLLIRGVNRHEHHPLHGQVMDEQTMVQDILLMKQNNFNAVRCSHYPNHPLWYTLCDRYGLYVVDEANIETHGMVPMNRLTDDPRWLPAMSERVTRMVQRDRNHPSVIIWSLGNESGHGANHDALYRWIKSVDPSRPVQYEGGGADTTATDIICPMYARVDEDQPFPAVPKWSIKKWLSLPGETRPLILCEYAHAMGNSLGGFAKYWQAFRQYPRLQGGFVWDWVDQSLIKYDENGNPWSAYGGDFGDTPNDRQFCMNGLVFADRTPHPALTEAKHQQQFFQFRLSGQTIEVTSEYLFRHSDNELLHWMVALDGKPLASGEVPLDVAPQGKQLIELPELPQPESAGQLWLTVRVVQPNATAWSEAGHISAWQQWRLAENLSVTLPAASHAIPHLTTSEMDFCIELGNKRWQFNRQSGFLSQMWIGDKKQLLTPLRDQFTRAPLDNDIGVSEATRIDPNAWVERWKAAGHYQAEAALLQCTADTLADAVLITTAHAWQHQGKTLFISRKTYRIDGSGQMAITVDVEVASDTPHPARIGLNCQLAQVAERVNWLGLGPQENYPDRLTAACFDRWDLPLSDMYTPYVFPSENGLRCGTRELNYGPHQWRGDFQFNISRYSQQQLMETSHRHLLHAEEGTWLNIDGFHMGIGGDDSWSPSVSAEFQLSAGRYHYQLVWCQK
For assay [6], the target named is Hepatocyte nuclear factor 4-alpha (Homo sapiens, UniProt P41235). Format: functional, cell-based.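 Also: biochemical luminescence-based dose-response counterscreen measuring inhibition of HNF4 dimerization, run alongside a screen for blockers of ABHD5–perilipin-5 interaction; split luciferase complementation of HNF4 fusion proteins in cell lysate measuring dimerization.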
Hepatocyte nuclear factor 4-alpha, sequence (P41235 whole entry, the tested form may be a part): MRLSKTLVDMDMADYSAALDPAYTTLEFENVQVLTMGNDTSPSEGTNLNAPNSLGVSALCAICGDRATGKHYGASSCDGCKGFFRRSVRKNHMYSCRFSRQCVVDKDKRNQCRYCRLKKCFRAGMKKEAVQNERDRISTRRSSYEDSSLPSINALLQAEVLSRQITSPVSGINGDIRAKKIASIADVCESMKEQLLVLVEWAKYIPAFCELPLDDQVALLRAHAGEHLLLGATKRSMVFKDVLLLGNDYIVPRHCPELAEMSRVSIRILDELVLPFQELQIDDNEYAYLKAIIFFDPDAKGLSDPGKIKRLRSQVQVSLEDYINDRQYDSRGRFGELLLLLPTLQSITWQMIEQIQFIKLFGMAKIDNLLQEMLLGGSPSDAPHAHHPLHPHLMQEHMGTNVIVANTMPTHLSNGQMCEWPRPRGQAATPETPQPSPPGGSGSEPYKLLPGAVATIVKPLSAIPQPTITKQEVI
Assay [7] deals with T1, ATP-dependent translocase ABCB1 (Homo sapiens, UniProt P08183). Put plainly: ABCB1 efflux inhibitor potency, dose response, Jurkat-DNR cells, JC-1, flow cytometry, set 2 (AID 504569).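 Also: potency of pump inhibitors that raise cellular JC-1 green fluorescence up to the nicardipine level.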 Format: functional. The note with it: read-out: EC50_MICROM_. On the technique in general: Flow cytometry measures light scatter and fluorescence of single cells or particles in a stream.
T1 sequence (P08183 whole entry): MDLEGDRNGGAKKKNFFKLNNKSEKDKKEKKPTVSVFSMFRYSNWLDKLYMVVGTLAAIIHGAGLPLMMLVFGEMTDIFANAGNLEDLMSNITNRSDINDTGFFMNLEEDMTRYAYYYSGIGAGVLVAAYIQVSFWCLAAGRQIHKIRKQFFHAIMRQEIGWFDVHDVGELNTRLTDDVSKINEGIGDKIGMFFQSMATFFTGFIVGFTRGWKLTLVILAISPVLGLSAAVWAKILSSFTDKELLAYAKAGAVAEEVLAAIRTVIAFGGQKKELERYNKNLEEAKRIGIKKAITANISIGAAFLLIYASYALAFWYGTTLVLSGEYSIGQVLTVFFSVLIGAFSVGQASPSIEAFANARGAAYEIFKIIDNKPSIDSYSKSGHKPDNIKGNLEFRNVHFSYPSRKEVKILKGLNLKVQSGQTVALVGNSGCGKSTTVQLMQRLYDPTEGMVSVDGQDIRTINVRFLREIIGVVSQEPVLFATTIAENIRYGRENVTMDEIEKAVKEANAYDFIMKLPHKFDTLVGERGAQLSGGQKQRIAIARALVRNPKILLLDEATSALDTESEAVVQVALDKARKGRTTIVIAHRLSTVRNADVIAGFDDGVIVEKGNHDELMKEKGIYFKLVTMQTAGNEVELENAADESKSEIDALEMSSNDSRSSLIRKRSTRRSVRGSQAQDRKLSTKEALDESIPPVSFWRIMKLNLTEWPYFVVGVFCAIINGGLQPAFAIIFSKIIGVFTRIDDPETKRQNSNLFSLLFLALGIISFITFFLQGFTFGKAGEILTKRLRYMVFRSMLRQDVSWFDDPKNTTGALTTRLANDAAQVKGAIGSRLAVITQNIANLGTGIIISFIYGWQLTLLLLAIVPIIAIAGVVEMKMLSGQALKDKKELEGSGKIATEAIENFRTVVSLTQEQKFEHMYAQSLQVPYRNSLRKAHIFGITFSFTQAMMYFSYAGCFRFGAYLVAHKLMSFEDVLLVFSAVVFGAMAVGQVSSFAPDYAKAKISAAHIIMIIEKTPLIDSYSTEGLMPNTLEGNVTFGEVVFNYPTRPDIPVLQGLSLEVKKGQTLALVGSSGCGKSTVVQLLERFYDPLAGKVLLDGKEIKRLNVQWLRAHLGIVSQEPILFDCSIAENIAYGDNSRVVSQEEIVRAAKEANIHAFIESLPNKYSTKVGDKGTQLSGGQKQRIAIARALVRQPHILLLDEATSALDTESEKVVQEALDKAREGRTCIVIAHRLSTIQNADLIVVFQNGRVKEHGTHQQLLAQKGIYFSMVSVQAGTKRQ
The target in assay [8] is T1, ATP-dependent translocase ABCB1. Put plainly: ABCG2 efflux pump inhibitor potency, dose response, Ig-MXP3 cells, JC-1, flow cytometry, set 2 (AID 504566).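 Also: flow cytometry median green fluorescence of retained JC-1 dye; potency of efflux pump inhibition measured as rising substrate retention.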 Format: functional. The note with it: read-out: EC50_MICROM_.
The next assay relates to Vero. In words: Vero cell toxicity, dose response, cytotoxicity control, plate reader, cherry-pick samples (AID 687020). The note with it: Chlorocebus sabaeus. Format: functional, cell-based.
For another assay, the system named is A549. Put plainly: A549 cell toxicity, dose response, cytotoxicity control, plate reader, cherry-pick samples (AID 687028). Format: functional, cell-based. The note with it: Homo sapiens.
Assay [9] deals with Mitochondrial peptide methionine sulfoxide reductase (Bos taurus, UniProt P54149). Format: functional.
Mitochondrial peptide methionine sulfoxide reductase, sequence (P54149 whole entry): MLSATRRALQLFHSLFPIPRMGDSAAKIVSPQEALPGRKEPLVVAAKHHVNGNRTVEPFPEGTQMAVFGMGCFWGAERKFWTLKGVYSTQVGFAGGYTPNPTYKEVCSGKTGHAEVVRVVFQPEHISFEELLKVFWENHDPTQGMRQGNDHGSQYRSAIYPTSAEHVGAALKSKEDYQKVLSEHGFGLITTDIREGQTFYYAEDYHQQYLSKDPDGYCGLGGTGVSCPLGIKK
For assay [10], the target named is T2, Heat shock factor protein 1 (Mus musculus, UniProt P38532).
T2 sequence (P38532 whole entry): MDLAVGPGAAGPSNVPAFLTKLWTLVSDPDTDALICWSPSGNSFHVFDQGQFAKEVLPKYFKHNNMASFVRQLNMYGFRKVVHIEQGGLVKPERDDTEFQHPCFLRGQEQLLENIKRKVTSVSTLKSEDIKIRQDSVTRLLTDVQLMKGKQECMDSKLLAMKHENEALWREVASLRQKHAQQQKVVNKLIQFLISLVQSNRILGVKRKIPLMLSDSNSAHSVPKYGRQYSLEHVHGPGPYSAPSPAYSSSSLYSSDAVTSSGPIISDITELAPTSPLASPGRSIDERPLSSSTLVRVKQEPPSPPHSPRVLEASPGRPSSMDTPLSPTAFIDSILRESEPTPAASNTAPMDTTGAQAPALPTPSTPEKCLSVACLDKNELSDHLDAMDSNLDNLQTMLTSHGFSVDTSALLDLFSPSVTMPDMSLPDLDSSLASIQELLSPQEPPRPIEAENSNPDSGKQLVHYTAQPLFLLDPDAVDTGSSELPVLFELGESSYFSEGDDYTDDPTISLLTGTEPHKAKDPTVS
In words: inhibition of MG132-induced HSE-luciferase signal, confirmation, cell-based, NIH3T3, luminescence, dose retest (AID 2382).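 Also: NIH3T3 fibroblasts with HSF1-driven luciferase reporter stressed by proteasome inhibitor MG132; luminescence from HSF1-driven luciferase expression after 8 hours of MG132 stress.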 Format: functional.

As usually defined, the AC50 is the midpoint of the concentration-response curve, whichever way the signal moves. For orientation: IC50 means the concentration at which inhibition is half-maximal.

Alkaline phosphatase, placental type, sequence (P05187 whole entry): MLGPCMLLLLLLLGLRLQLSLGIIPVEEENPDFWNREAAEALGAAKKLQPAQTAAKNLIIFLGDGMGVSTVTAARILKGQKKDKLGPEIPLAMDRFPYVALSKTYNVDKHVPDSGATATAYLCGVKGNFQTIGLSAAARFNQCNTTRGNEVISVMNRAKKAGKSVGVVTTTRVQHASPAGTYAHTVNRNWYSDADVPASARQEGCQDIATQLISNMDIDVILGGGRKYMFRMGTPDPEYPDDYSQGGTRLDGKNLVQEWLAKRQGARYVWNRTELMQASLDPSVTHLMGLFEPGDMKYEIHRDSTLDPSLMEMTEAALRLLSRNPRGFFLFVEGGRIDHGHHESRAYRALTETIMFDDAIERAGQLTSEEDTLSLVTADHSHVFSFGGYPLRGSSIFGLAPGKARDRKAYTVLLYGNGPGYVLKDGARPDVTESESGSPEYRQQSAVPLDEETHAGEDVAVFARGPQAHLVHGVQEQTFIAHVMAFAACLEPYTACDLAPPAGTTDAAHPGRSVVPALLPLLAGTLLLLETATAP
Beta-lactamase (Salmonella choleraesuis (strain SC-B67), UniProt Q5J463), sequence (Q5J463 whole entry): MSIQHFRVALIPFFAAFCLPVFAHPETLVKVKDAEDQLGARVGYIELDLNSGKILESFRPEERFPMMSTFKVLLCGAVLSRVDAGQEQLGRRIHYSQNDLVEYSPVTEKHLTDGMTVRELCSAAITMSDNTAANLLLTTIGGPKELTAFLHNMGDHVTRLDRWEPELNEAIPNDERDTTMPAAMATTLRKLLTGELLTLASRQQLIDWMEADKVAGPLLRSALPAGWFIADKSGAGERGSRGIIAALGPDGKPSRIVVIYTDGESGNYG

For the molecule `COc1ccc(-c2cc(NCc3ccccn3)n3ncnc3n2)cc1`, the AC50 in [1] was 91.5 µM (active). For the same molecule, the IC50 in assay [2] is > 100 µM (inactive).

Regarding `CC(C)C(CCN1C(=O)c2ccccc2C1=O)c1ccco1` (stereo not drawn), the IC50 on Beta-lactamase [3] was > 59.6 µM (inactive); on Beta-lactamase [4], 36.8 µM (inactive).

As to `CC1(C)CC(=O)C(=CNc2ncccc2/N=C/C2=C(O)CC(C)(C)CC2=O)C(=O)C1`, the values for the IC50 (in [5]; at Beta-galactosidase) were < 980 nM (inactive) and 1.23 µM (active), respectively.

`O=C(Nc1ccc2c(c1)OCCO2)C(c1ccccc1F)n1c(=O)c(-c2ccco2)nc2ccccc21` (stereo not drawn): in assay [6], the IC50 was 16.2 µM (inactive).

In the case of `CC(=O)N1CCN(c2cc(-c3ccccc3)nc3cc(-c4cccc(Cl)c4)nn23)CC1`, the values for the EC50 in assay [7] and in assay [8] were 4.1 µM (active) and 5.55 µM (active), respectively.

With `COC(=O)N1CCCCC1c1cc(C(=O)Nc2ccc(OC)cc2C)no1` (stereo not drawn), the concentration at half-maximal activity (AC50) in the assay on Vero was 34.5 µM (active).

In the case of `C[C@@H]1CCCCO[C@H](CN(C)Cc2ccc(Cl)c(Cl)c2)[C@H](C)CN([C@@H](C)CO)C(=O)c2cc(NC(=O)c3ccccc3)ccc2O1`, in the assay on A549, the AC50 was 31.5 µM (active).

Regarding `CCCCc1[nH]nc2c1/C(=N/OCC)CC(C)(C)C2`, in assay [9], the IC50 was 155 µM (inactive). Further, in [10], the EC50 is > 195 µM (not active).
